Data reported in PMC2500149 (International Journal of Medical Sciences, 2008).

Tests used:
[1] = statement of the introduction; cited from earlier work
[2] = Far UV circular dichroism, TFE polarity titration; format: physicochemical; conditions: aqueous solution, 10% TFE, 100 µg/ml
cells = conditions: free peptide without transporter; stated, no experiment described; cited from earlier work
[3] = Solubility of the peptides in water and TFE/water; format: physicochemical

Compound	water solubility [1]	aggregation (inferred from poor water solubility and β-structure in CD) [2]	direct cell permeation / transfer across biomembranes (cells)	water solubility (in words) [3]
Cc1ccc(NC(=O)NCCSCc2ccc(CN(C)C)o2)cc1Cl [CAP-1]	limited water solubility	–	–	–
C=C(C)[C@@H]1CC[C@]2(C(=O)O)CC[C@]3(C)[C@H](CC[C@@H]4[C@@]5(C)CC[C@H](OC(=O)CC(C)(C)C(=O)O)C(C)(C)[C@@H]5CC[C@]43C)[C@@H]12 [PA-457]	limited water solubility	–	–	–
ITFEDLLDYYGP [CAI(Pep1)]	limited water solubility	–	–	–
ITFEDLLDYYGPKC [CAI-peptide]	–	oligomeric aggregates are formed	cannot permeate cells directly	water insoluble
